Publication PMC11642016 (International Journal of Molecular Sciences, 2024)
“And” between values parts separate entries of the source, which are not always exact repeats. Equal entries are not always repeated. Where two headings read alike, the source gives them in different places.

How the values were obtained:
[1] = test system: PANC-1, Fadu, A2058 and EBC-1 cell lines; design: method as in PMID 35455465; settings: 10 µM; cited from earlier work
[2] = test system: PANC-1 and A2058 cells; design: method as in PMID 35455465; settings: 24 h exposure time; cited from earlier work
[3] = test system: Fadu cells; experiment: CellTiter-Glo luminescent cell viability assay, Fadu; settings: for Fadu Cell viability (% of controll) / Cell Viability (% of Control) 2.8 µM / Cell Viability (% of Control) 8.3 µM / Cell Viability (% of Control) 25 µM: 72 h; for Fadu Cell viability (% of controll): dose–response, individual replicates; for Cell Viability (% of Control) 2.8 µM / Cell Viability (% of Control) 8.3 µM / Cell Viability (% of Control) 25 µM: Fadu, mean ± SD, n = 2
[4] = test system: PANC-1 cells; experiment: CellTiter-Glo luminescent cell viability assay, PANC-1; settings: for PANC-1 Cell viability (% of controll) / Cell Viability (% of Control) 2.8 µM / Cell Viability (% of Control) 8.3 µM / Cell Viability (% of Control) 25 µM: 72 h; for PANC-1 Cell viability (% of controll): dose–response, individual replicates; for Cell Viability (% of Control) 2.8 µM / Cell Viability (% of Control) 8.3 µM / Cell Viability (% of Control) 25 µM: PANC-1, mean ± SD, n = 2
Protocol: Primary fibroblast cultures were prepared from human skin biopsies and maintained in DMEM supplemented with 10% FBS, 1% penicillin-streptomycin, and 1% MEM Non-Essential Amino Acids Solution (Thermo Fisher Scientific). […] All cell lines were cultured in a humidified atmosphere at 37 °C and 5% CO2, passaged twice a week, and the experiments were performed on cells between passage 5 and 15. The cell lines were routinely screened for the absence of mycoplasma infection (DAPI staining).
The effects of the synthesized compounds on cell viability were measured using the CellTiter-Glo® luminescent cell viability assay (Promega, Madison, WI, USA), according to the manufacturer’s instructions. Briefly, cells were seeded onto a flat-bottomed, white 96-well plate (BRANDplates, cat. no.: 781965)), with the following densities: PANC-1: 750 cells/well, Fadu: 2000 cells/well, primary fibroblasts: 2000 cells/well, HEK293T WT: 1000 cells/well, HEK293T CLPP^−/−: 2500 cells/well. After seeding, cells were incubated for a further 48 h before treatment. Cells were treated with the compounds for 72 h. Three concentrations (25.0 µM; 8.3 µM; 2.8 µM) were applied during the initial cell viability screening, while for the determination of dose–response curves, 1.5-fold serially diluted compound concentrations were applied (range: 26 µM–0.7 µM). After treatment, the luminescence signal was recorded using a microplate reader (BioTek Synergy 2 Multi-Mode Reader, BioTek, Winooski, VT, USA).
Data analysis was performed using GraphPad Prism 9.5.0 software (GraphPad Software, San Diego, CA, USA). […] The dose–response curves were generated by four-parameter nonlinear regression, and the IC50 values were determined as the means ± SEM of the best-fit values of 3 independent measurements. The R^2 values were consistently above 0.93, indicating a strong fit of the model to the experimental data (Supplementary S.89). […] Dunnett’s post hoc test was applied to adjust for multiple comparisons, minimizing the likelihood of false positive results. Assumptions for ANOVA, including normality (assessed via QQ plots) and homogeneity of variance (tested using the Brown–Forsythe test), were verified. The following significance levels were applied: * p < 0.05, ** p < 0.01, *** p < 0.001, **** p < 0.0001. […] The tumor selectivity of the compounds was quantitatively characterized by the selectivity index (SI). This parameter was calculated as the ratio of the average best-fit IC50 value for primary fibroblasts and the best-fit IC50 value for the corresponding tumor cells (PANC-1 or Fadu).

[5] = test system: non-tumorous primary fibroblast cells; experiment: CellTiter-Glo luminescent cell viability assay, primary fibroblasts; settings: for Primer fibroblast Cell viability (% of controll): 72 h, dose–response, individual replicates

Which results are given for `NCC#Cc1ccc(CN2C(=O)C3=C(CCN(Cc4ccc(-n5cc(-[c-]6cccc6)nn5)cc4)C3)N3CCN=C23)cc1.[Fe+2].c1cc[cH-]c1` [I/A, reference compound]?
viable cells after treatment in colony formation assays [1]: no viable cells could be observed; apoptosis induction [2]: far more efficient in apoptosis induction than ONC201; Fadu Cell viability (% of controll) ([3]; 0.7 μM): 111 % of controll and 115 % of controll and 108 % of controll; Fadu Cell viability (% of controll) ([3]; 1 μM): 110 % of controll and 112 % of controll and 109 % of controll; Fadu Cell viability (% of controll) ([3]; 1.5 μM): 107 % of controll and 108 % of controll and 109 % of controll; Fadu Cell viability (% of controll) ([3]; 2.3 μM): 109 % of controll (2×) and 104 % of controll; Fadu Cell viability (% of controll) ([3]; 3.4 μM): 104 % of controll and 109 % of controll and 110 % of controll; Fadu Cell viability (% of controll) ([3]; 5.1 μM): 105 % of controll and 106 % of controll and 102 % of controll; Fadu Cell viability (% of controll) ([3]; 7.7 μM): 99 % of controll and 86 % of controll and 82 % of controll; Fadu Cell viability (% of controll) ([3]; 17.3 μM): 5 % of controll and 0 % of controll and 1 % of controll; Fadu Cell viability (% of controll) ([3]; 26 μM): 0 % of controll; Cell Viability (% of Control) 2.8 µM ([3]; first-set screening): 105 ± 9 % of Control; Cell Viability (% of Control) 2.8 µM ([3]; second-set screening): 105 ± 9 % of Control; Cell Viability (% of Control) 8.3 µM ([3]; first-set screening): 66 ± 24 % of Control; Cell Viability (% of Control) 8.3 µM ([3]; second-set screening): 66 ± 24 % of Control; Cell Viability (% of Control) 25 µM ([3]; first-set screening): 0 ± 0 % of Control; Cell Viability (% of Control) 25 µM ([3]; second-set screening): 0 ± 0 % of Control; Selectivity Index (SI) Fibroblast/Fadu ([3]; ratio of mean best-fit IC50 for primary fibroblasts and best-fit IC50 for Fadu): 1.5; IC50 ([3]; read-out: Fadu IC50 values, Mean, mean of independently fitted replicate IC50 values (Supplement S.6)): 10 µM; IC50 ([3]; read-out: Fadu IC50 values, individual replicates n1-n3, IC50 independently determined for each replicate measurement (Supplement S.6)): 11.2 µM and 9.27 µM and 9.61 µM; IC50 ([3]; read-out: IC50 Value ± SEM Fadu, 72 h treatment, best-fit values, n = 3): 10 ± 0.23 µM; PANC-1 Cell viability (% of controll) ([4]; 0.7 μM): 106 % of controll and 102 % of controll and 107 % of controll; PANC-1 Cell viability (% of controll) ([4]; 1 μM): 109 % of controll and 116 % of controll and 115 % of controll; PANC-1 Cell viability (% of controll) ([4]; 1.5 μM): 110 % of controll and 105 % of controll and 115 % of controll; PANC-1 Cell viability (% of controll) ([4]; 2.3 μM): 109 % of controll and 107 % of controll and 111 % of controll; PANC-1 Cell viability (% of controll) ([4]; 3.4 μM): 108 % of controll and 109 % of controll and 112 % of controll; PANC-1 Cell viability (% of controll) ([4]; 5.1 μM): 99 % of controll and 97 % of controll and 119 % of controll; PANC-1 Cell viability (% of controll) ([4]; 7.7 μM): 93 % of controll and 79 % of controll and 109 % of controll; PANC-1 Cell viability (% of controll) ([4]; 17.3 μM): 0 % of controll and 2 % of controll and 1 % of controll; PANC-1 Cell viability (% of controll) ([4]; 26 μM): 0 % of controll; Cell Viability (% of Control) 2.8 µM ([4]; first-set screening): 108 ± 4 % of Control; Cell Viability (% of Control) 2.8 µM ([4]; second-set screening): 108 ± 4 % of Control; Cell Viability (% of Control) 8.3 µM ([4]; first-set screening): 39 ± 7 % of Control; Cell Viability (% of Control) 8.3 µM ([4]; second-set screening): 39 ± 7 % of Control; Cell Viability (% of Control) 25 µM ([4]; first-set screening): 0 ± 0 % of Control; Cell Viability (% of Control) 25 µM ([4]; second-set screening): 0 ± 0 % of Control; Selectivity Index (SI) Fibroblast/PANC-1 ([4]; ratio of mean best-fit IC50 for primary fibroblasts and best-fit IC50 for PANC-1): 1.4; IC50 ([4]; read-out: IC50 Value ± SEM PANC-1, 72 h treatment, best-fit values, n = 3): 10.7 ± 0.31 µM; IC50 ([4]; read-out: PANC-1 IC50 values, Mean, mean of independently fitted replicate IC50 values (Supplement S.6)): 10.6 µM; IC50 ([4]; read-out: PANC-1 IC50 values, individual replicates n1-n3, IC50 independently determined for each replicate measurement (Supplement S.6)): 11.5 µM and 10.3 µM and 10.1 µM; Primer fibroblast Cell viability (% of controll) ([5]; 0.7 μM): 96 % of controll and 98 % of controll and 99 % of controll; Primer fibroblast Cell viability (% of controll) ([5]; 1 μM): 100 % of controll and 103 % of controll and 99 % of controll; Primer fibroblast Cell viability (% of controll) ([5]; 1.5 μM): 102 % of controll and 105 % of controll and 104 % of controll; Primer fibroblast Cell viability (% of controll) ([5]; 2.3 μM): 102 % of controll (2×) and 104 % of controll; Primer fibroblast Cell viability (% of controll) ([5]; 3.4 μM): 104 % of controll (2×) and 107 % of controll; Primer fibroblast Cell viability (% of controll) ([5]; 5.1 μM): 107 % of controll and 109 % of controll and 98 % of controll; Primer fibroblast Cell viability (% of controll) ([5]; 7.7 μM): 115 % of controll and 118 % of controll and 109 % of controll; Primer fibroblast Cell viability (% of controll) ([5]; 17.3 μM): 8 % of controll and 42 % of controll and 24 % of controll; Primer fibroblast Cell viability (% of controll) ([5]; 26 μM): 0 % of controll; IC50 ([5]; read-out: IC50 Value ± SEM Primary Fibroblast, 72 h treatment, best-fit values, n = 3): 14.9 ± 0.46 µM; IC50 ([5]; read-out: Primary fibroblast IC50 values, Mean, mean of independently fitted replicate IC50 values (Supplement S.6), ONC201 value mathematically estimated from inflection point): 15.2 µM; IC50 ([5]; read-out: Primary fibroblast IC50 values, individual replicates n1-n3, IC50 independently determined for each replicate (Supplement S.6), ONC201 value mathematically estimated from inflection point, viability stayed above 50%): 13.9 µM and 14.9 µM and 16.8 µM
